Laboratory results: article PMC4707509, “TSPO ligand residence time: a new parameter to predict compound neurosteroidogenic efficacy” (Scientific Reports, 2016)
Like-named read-outs stand apart in the source and are kept apart here.

How the values were obtained:
TSPO [1] = molecular target: T1, TSPO (Rattus norvegicus, UniProt P16257); test: [3H]PK11195 binding displacement assay, rat kidney membranes; settings: read-out: Equilibrium Ki
T1 construct: Membranes from rat kidneys were prepared as described previously; from tissue; host or cells: rat kidney membranes
Protocol: (§1) Membranes from rat kidneys were prepared as described previously. All the experimental procedures were carried out following the guidelines of the European Community Council Directive 86–609 and have been approved by the Committee for animal experimentation of the University of Pisa. The resulting membrane pellets were aliquoted and frozen at –20 °C. For all radioligand binding assays, an aliquot of membranes was thawed, suspended in assay buffer (AB, Tris-HCl 50 mM, pH 7.4) and homogenized using Ultraturrax. In cell membrane homogenate, protein content was measured by the Bradford method[52] using the Bio-Rad Protein Assay reagent.
(§2) All experiments were analyzed by either linear or non linear regression using Prism 5.0 (GraphPad Software Inc., San Diego, CA). […] Competition displacement binding were fitted to sigmoidal (variable slope) curves.

rat C6 glioma cells = test: Pregnenolone production in C6 glioma cells (ELISA); type: cell-based; settings: for Emax at 100 µM / EC50: Rattus norvegicus, 2 h; for Emax at 100 µM: read-out: Emax (at 100 μM) (vehicle set to 100%); for EC50: read-out: EC50 (pregnenolone production); for steroidogenic efficacy, ranking in words: among all tested TSPO ligands
TSPO [2] = molecular target: T1, TSPO; test: Simplified (one-concentration) competition kinetic association assay; type: binding; settings: for dissociation rate of the ligand from TSPO (rapid or slow competitor of [3H]PK11195): shape of [3H]PK11195 association curve, ligand at three-fold Ki; for Kd / koff / kon: unlabeled ligand at three-fold Ki only; for Kd: read-out: Kinetically-derived Kd = Koff/Kon
Protocol: The unlabeled TSPO ligand kinetic parameters were assessed using the theoretical model of Motulsky and Mahan[32]. Unlike methods in which one compound is pre-equilibrated with the receptor, this approach involves the simultaneous addition of both radioligand and competitor to receptor preparation, so that at t = 0 all receptors are unoccupied. […] The degree of bound to TSPO was assessed at multiple time points by filtration harvesting and liquid scintillation counting, as above described. […] For ‘simplified’ competition kinetic association assays, the experiments were performed using concentration of unlabeled TSPO ligands corresponding to three-fold their Ki.
Association and dissociation rates for unlabeled TSPO ligands were calculated by fitting the data in the competition association model using the ‘kinetics of competitive binding’ assay, defining the amount of radioligand bound to receptor ([RL]) as a function of time[32]: […]

neurosteroid synthesis = system: neurosteroid synthesis; design: method as in PMID 25654303; settings: relative to XBD173; cited from earlier work
TSPO [3] = system: TSPO; design: method as in PMID 25654303; settings: relative to XBD173; cited from earlier work
rat = settings: cited from earlier work; for anxiolytic activity in EPM test: rat
TSPO [4] = molecular target: T1, TSPO; test: [3H]PK11195 binding saturation assay, rat kidney membranes; settings: [3H]PK11195 saturation binding
Protocol: as §1, §2

human glial cell model = system: human glial cell model; design: method as in PMID 20728278; settings: cited from earlier work
GABAA receptor = system: GABAA receptor; design: method as in PMID 20728278; settings: conditioned medium of treated glial cells; cited from earlier work
[5] = displacement of 1 nM [3H]PK11195, rat kidney membranes, 0 °C
[6] = pregnenolone production at 100 μM ligand, C6 cells
[7] = C6 cells, 0-100 μM ligand, serum-free

With CCCN(CCC)C(=O)C(=O)c1c(-c2ccccc2)[nH]c2ccccc12 [PIGA719] the Ki (TSPO [1]; [5]) was 12.2 ± 1.1 nM, the Emax at 100 µM (rat C6 glioma cells; [6]) was 146 ± 2% and the EC50 (rat C6 glioma cells; [7]) was 12900 ± 1500 nM. The “dissociation rate of the ligand from TSPO (rapid or slow competitor of [3H]PK11195)” value (“dissociation rate of the ligand” for short) (TSPO [2]) was “rapid” and the Kd (TSPO [2]) was 11.9 ± 1 nM.

Work on CCCCCCN(CCCCCC)C(=O)C(=O)c1c(-c2ccc(C(=O)O)cc2)[nH]c2ccccc12 [PIGA1214] yielded a Ki (TSPO [1]) of 343 ± 15.9 nM, an Emax at 100 µM (rat C6 glioma cells; [6]) of 141 ± 4% and an EC50 (rat C6 glioma cells; [7]) of 92000 ± 5600 nM. For the same compound, the “dissociation rate of the ligand” value (TSPO [2]) was “rapid” and the Kd (TSPO [2]) was 332 ± 15 nM.

CCCN(CCC)C(=O)C(=O)c1c(-c2ccc3ccccc3c2)[nH]c2ccccc12 [PIGA1128] showed a Ki (TSPO [1]; [5]) of 0.31 ± 0.02 nM, an Emax at 100 µM (rat C6 glioma cells; [6]) of 179 ± 7% and an EC50 (rat C6 glioma cells; [7]) of 26100 ± 1500 nM. For the same compound, the “dissociation rate of the ligand” value (TSPO [2]) was “slow”, the koff (TSPO [2]) was 0.0003 s⁻¹ and the kon (TSPO [2]) was 1.35e+06 M⁻¹ s⁻¹. For the same compound, the Kd (TSPO [2]) was 0.22 ± 0.05 nM.

Work on CCCCCCN(CCCCCC)C(=O)C(=O)c1c(-c2ccccc2)[nH]c2ccc([N+](=O)[O-])cc12 [PIGA925] yielded a Ki (TSPO [1]) of 12.2 ± 3.14 nM, an Emax at 100 µM (rat C6 glioma cells; [6]) of 166 ± 5% and an EC50 (rat C6 glioma cells; [7]) of 9710 ± 1000 nM. The “dissociation rate of the ligand” value (TSPO [2]) was “rapid”, the koff (TSPO [2]) was 0.00113 s⁻¹ and the kon (TSPO [2]) was 113000 M⁻¹ s⁻¹. It also gave a Kd (TSPO [2]) of 10 ± 1.13 nM.

CCCCN(CCCC)C(=O)C(=O)c1c(-c2ccc(Cl)cc2)[nH]c2ccc(Cl)cc12 [PIGA835] gave a Ki (TSPO [1]) of 0.91 ± 0.11 nM, an Emax at 100 µM (rat C6 glioma cells; [6]) of 149 ± 4% and an EC50 (rat C6 glioma cells; [7]) of 25600 ± 2300 nM. For the same compound, the “dissociation rate of the ligand” value (TSPO [2]) was “rapid”, the koff (TSPO [2]) was 0.000967 s⁻¹ and the kon (TSPO [2]) was 963000 M⁻¹ s⁻¹. It also gave a Kd (TSPO [2]) of 1 ± 0.19 nM.

With CCCCCCN(CCCCCC)C(=O)C(=O)c1c(-c2ccccc2)[nH]c2ccccc12 [PIGA720] the Ki (TSPO [1]; [5]) was 1.4 ± 0.28 nM, the Emax at 100 µM (rat C6 glioma cells; [6]) was 144 ± 4% and the EC50 (rat C6 glioma cells; [7]) was 29700 ± 3100 nM. The “dissociation rate of the ligand” value (TSPO [2]) was “rapid” and the Kd (TSPO [2]) was 1.79 ± 0.24 nM.

In the case of CCNC1=Nc2ccc(Cl)cc2C(C)(c2ccccc2)O1 (stereo not shown) [Etifoxine], the “potency to stimulate neurosteroidogenesis compared with XBD173” value (neurosteroid synthesis) is given as “more potent” and the “binding affinity to TSPO, fold lower than XBD173” value (TSPO [3]) is given as “approximately 140 fold”.

Compound CCCCCCN(CCCCCC)C(=O)C(=O)c1c(-c2ccccc2)[nH]c2ccc(Cl)cc12 [PIGA745] has a Ki (TSPO [1]) of 13.1 ± 1.16 nM, an Emax at 100 µM (rat C6 glioma cells; [6]) of 140 ± 5% and an EC50 (rat C6 glioma cells; [7]) of 34600 ± 3600 nM. For the same compound, the “dissociation rate of the ligand” value (TSPO [2]) was “rapid”, the koff (TSPO [2]) was 0.000967 s⁻¹ and the kon (TSPO [2]) was 64000 M⁻¹ s⁻¹. It also gave a Kd (TSPO [2]) of 15.1 ± 1.16 nM.

In the case of CCC(C)N(C)C(=O)c1cc2ccccc2c(-c2ccccc2Cl)n1 (stereo not shown) [PK11195, reference compound], the “anxiolytic effect in EPM test” value (rat) is given as “does not determine anxiolytic effect”, the EC50 (rat C6 glioma cells) is given as 19500 ± 1800 nM and the Emax at 100 µM (rat C6 glioma cells; [6]) is given as 153 ± 4%. For the same compound, the Bmax (TSPO [4]) was 6498 ± 500 fmol/mg of proteins.

In the case of CCCN(CCC)C(=O)C(=O)c1c(-c2ccc(C)cc2)[nH]c2ccccc12 [PIGA839], the Ki (TSPO [1]; [5]) is listed as 5.5 ± 0.47 nM, the “anxiolytic activity in EPM test” value (rat) is listed as “significant anxiolytic activity” and the Emax at 100 µM (rat C6 glioma cells; [6]) is listed as 254 ± 5%. For the same compound, the EC50 (rat C6 glioma cells; [7]) was 16300 ± 1400 nM, the “steroidogenic efficacy, ranking in words” value (rat C6 glioma cells; C6 cells) was “highest efficacy” and the “allopregnanolone in medium of treated cells” value (human glial cell model) was “high levels”. For the same compound, the “36Cl- uptake into cerebral cortical synaptoneurosomes” value (GABAA receptor) was “potentiated”, the “dissociation rate of the ligand” value (TSPO [2]) was “slow” and the koff (TSPO [2]) was 0.00015 s⁻¹. The kon (TSPO [2]) was 28200 M⁻¹ s⁻¹ and the Kd (TSPO [2]) was 5.45 ± 0.6 nM.

Compound CCCCCN(C)C(=O)C(=O)c1c(-c2ccc3ccccc3c2)[nH]c2ccccc12 [PIGA1138] has a Ki (TSPO [1]) of 0.34 ± 0.03 nM, an Emax at 100 µM (rat C6 glioma cells; [6]) of 275 ± 5% and an EC50 (rat C6 glioma cells; [7]) of 13100 ± 1400 nM. For the same compound, the “steroidogenic efficacy, ranking in words” value (rat C6 glioma cells; C6 cells) was “highest efficacy”, the “dissociation rate of the ligand” value (TSPO [2]) was “slow” and the koff (TSPO [2]) was 0.000117 s⁻¹. The kon (TSPO [2]) was 717000 M⁻¹ s⁻¹ and the Kd (TSPO [2]) was 0.17 ± 0.03 nM.

For CCN(Cc1ccccc1)C(=O)C(=O)c1c(-c2ccc(Cl)cc2)[nH]c2ccc(Cl)cc12 [PIGA823], the Ki (TSPO [1]; [5]) is listed as 3.3 ± 0.31 nM, the “anxiolytic activity in EPM test” value (rat) is listed as “significant anxiolytic activity” and the Emax at 100 µM (rat C6 glioma cells; [6]) is listed as 272 ± 11%. For the same compound, the EC50 (rat C6 glioma cells; [7]) was 12200 ± 1300 nM, the “steroidogenic efficacy, ranking in words” value (rat C6 glioma cells; C6 cells) was “highest efficacy” and the “dissociation rate of the ligand” value (TSPO [2]) was “slow”. For the same compound, the Kd (TSPO [2]) was 1.86 ± 0.17 nM.

For CN1C(=O)CN=C(c2ccc(Cl)cc2)c2cc(Cl)ccc21 [Ro5-4864, reference compound], the “anxiolytic effect in EPM test” value (rat) is listed as “does not determine anxiolytic effect”, the EC50 (rat C6 glioma cells) is listed as 36200 ± 2500 nM and the Emax at 100 µM (rat C6 glioma cells) is listed as 150 ± 4%. For the same compound, the “dissociation rate of the ligand” value (TSPO [2]) was “rapid”.
